Data as given in patent US20240148821A1, “PHARMACEUTICAL USE OF CYCLIC PEPTIDE COMPOUND” (CHUGAI SEIYAKU KABUSHIKI KAISHA, priority 2021, published 2024).
Numbered stars: 1 amine (or outer) side, 2 acyl side, 3 side chain; on linkers, the order of the positions; unused ones are H or OH. Bridge positions count the residues as written; N and C are the ends. Square brackets hold non-standard residues; d marks the D form. Peptide text beside a SMILES is read from it. * marks the point of attachment. hPhe(3-Cl-4-CF3) = N[C@@H](CCc1ccc(C(F)(F)F)c(Cl)c1)C(=O)O; hPhe(3-F,4-CF3) = N[C@@H](CCc1ccc(C(F)(F)F)c(F)c1)C(=O)O; X23 = N#Cc1cc(CC[C@H](N[*:1])C(=O)[*:2])ccc1C(F)(F)F; X33 = O=C([C@H](CCc1c(F)c(F)c(F)c(F)c1F)N[*:1])[*:2]; X8 = CC(C)Oc1cc(CC[C@H](N[*:1])C(=O)[*:2])cc(Cl)c1Cl; X6 = O=C([C@H](CCc1ccc2c(c1)OC(F)(F)O2)N[*:1])[*:2]; X71 = O=C([C@H](CCc1ccc(C(F)(F)F)cc1F)N[*:1])[*:2]; X1 = O=C([C@H](CCc1ccc(OC(F)F)c(F)c1)N[*:1])[*:2]; X56 = O=C([C@H](CCc1cccc(C(F)(F)F)c1)N[*:1])[*:2]; X118 = O=C([C@H](CCc1c(F)cc(F)cc1F)N[*:1])[*:2]; X103 = O=C([C@H](CCc1c(F)cccc1Cl)N[*:1])[*:2]; NMePhe(4-Cl) = CN[C@@H](Cc1ccc(Cl)cc1)C(=O)O; X29 = O=C([C@H](CCc1cc(Cl)ccc1F)N[*:1])[*:2]; X30 = O=C([C@H](CCc1ccc(Cl)cc1F)N[*:1])[*:2]; X99 = O=C([C@H](CCc1ccc(F)cc1F)N[*:1])[*:2]; X2 = COc1ccc(CC[C@H](N[*:1])C(=O)[*:2])cn1; NMeGly(cPent) = CN[C@H](C(=O)O)C1CCCC1; NMeCha = CN[C@@H](CC1CCCCC1)C(=O)O; Azetidine(3,3-F2) = FC1(F)CN(*)C1; NMeF = CN[C@@H](Cc1ccccc1)C(=O)O; NMeE = CN[C@@H](CCC(=O)O)C(=O)O; NMeD = CN[C@@H](CC(=O)O)C(=O)O; NMeL = CN[C@@H](CC(C)C)C(=O)O; NMeV = CN[C@H](C(=O)O)C(C)C; d(β3hA) = C[C@@H](N)CC(=O)O; Morpholide = C1CN(*)CCO1; NMeA = CN[C@@H](C)C(=O)O; Piperidide = C1CCN(*)CC1; Pyrrolidide = C1CCN(*)C1; Ac5c = NC1(C(=O)O)CCCC1; Aze = O=C(O)[C@@H]1CCN1; Sar = CNCC(=O)O

Target: protein-protein interaction between Kras and SOS1 (biotin-tagged human Kras loaded with GDP, His-tagged human SOS1) (Homo sapiens (Human), UniProt P01116, G12D)
Assay: Protein-protein interaction inhibition between Kras and SOS1 (KrasG12D-SOS PPI) using AlphaScreen;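 also: kras produced in E. coli, Ni-coupled donor beads and streptavidin acceptor beads, excitation 680 nm with emission detected at 520–620 nm via singlet oxygen transfer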
Assay type: biochemical
Conditions: not given

| Compound | IC50 [µM] |
| --- | --- |
| CC[C@H](C)[C@@H]1NC(=O)[C@H](CC(C)C)N(C)C(=O)C[C@@H](C(=O)N(C)C)N(C)C(=O)[C@H](C2CCCC2)N(C)C(=O)C2(CCCC2)NC(=O)[C@H](CC(=O)N2CCCC2)N(C)C(=O)[C@H](CCc2ccc(C(F)(F)F)c(Cl)c2)NC(=O)CN(C)C(=O)[C@H](CC2CCCCC2)N(C)C(=O)[C@@H]2CCN2C(=O)[C@H](C)N(C)C1=O [Compound 2097] ([NMeL]I[NMeA][Aze][NMeCha][Sar][hPhe(3-Cl-4-CF3)][NMeD](Pyrrolidide)[Ac5c][NMeGly(cPent)][NMeD]-NMe2; lactam N-11) | 0.00057 |

Same assay, conditions: AlphaScreen; biotin-tagged human Kras loaded with GDP, His-tagged human SOS1; read-out: KRAS G12D-SOS PPI IC50

| Compound | IC50 [µM] |
| --- | --- |
| CC[C@H](C)[C@@H]1NC(=O)[C@H](CC(C)C)N(C)C(=O)C[C@@H](C(=O)N2CCCCC2)N(C)C(=O)[C@H](C2CCCC2)N(C)C(=O)C2(CCCC2)NC(=O)[C@@H]2CCCN2C(=O)[C@H](CCc2ccc(C(F)(F)F)c(C#N)c2)NC(=O)CN(C)C(=O)[C@H](CC2CCCCC2)N(C)C(=O)[C@@H]2CCN2C(=O)[C@H](C)N(C)C1=O [Compound 2072] ([NMeL]I[NMeA][Aze][NMeCha][Sar][X23]P[Ac5c][NMeGly(cPent)][NMeD]-Piperidide; lactam N-11 (inferred); C-terminus assumed) | 0.00042 |
| CC[C@H](C)[C@@H]1NC(=O)[C@H](CC(C)C)N(C)C(=O)C[C@@H](C(=O)N2CCCCC2)N(C)C(=O)[C@H](C2CCCC2)N(C)C(=O)C2(CCCC2)NC(=O)[C@@H]2CCCN2C(=O)[C@H](CCc2ccc3c(c2)OC(F)(F)O3)NC(=O)CN(C)C(=O)[C@H](CC2CCCCC2)N(C)C(=O)[C@@H]2CCN2C(=O)[C@H](C)N(C)C1=O [Compound 2074] ([NMeL]I[NMeA][Aze][NMeCha][Sar][X6]P[Ac5c][NMeGly(cPent)][NMeD]-Piperidide; lactam N-11 (inferred); C-terminus assumed) | 0.0027 |
| CC[C@H](C)[C@@H]1NC(=O)[C@H](CC(C)C)N(C)C(=O)C[C@@H](C(=O)N2CCCCC2)N(C)C(=O)[C@H](C2CCCC2)N(C)C(=O)C2(CCCC2)NC(=O)[C@@H]2CCCN2C(=O)[C@H](CCc2ccc(OC(F)F)c(F)c2)NC(=O)CN(C)C(=O)[C@H](CC2CCCCC2)N(C)C(=O)[C@@H]2CCN2C(=O)[C@H](C)N(C)C1=O [Compound 2076] ([NMeL]I[NMeA][Aze][NMeCha][Sar][X1]P[Ac5c][NMeGly(cPent)][NMeD]-Piperidide; lactam N-11 (inferred); C-terminus assumed) | 0.0025 |
| CC[C@H](C)[C@@H]1NC(=O)[C@H](C)N(C)C(=O)C[C@@H](C(=O)N2CCCCC2)N(C)C(=O)[C@H](C(C)C)N(C)C(=O)C2(CCCC2)NC(=O)[C@@H]2CCCN2C(=O)[C@H](CCc2cc(Cl)c(Cl)c(OC(C)C)c2)NC(=O)CN(C)C(=O)[C@H](CC2CCCCC2)N(C)C(=O)CN(C)C(=O)CN(C)C1=O [Compound 2079] ([NMeA]I[Sar][Sar][NMeCha][Sar][X8]P[Ac5c][NMeV][NMeD]-Piperidide; lactam N-11) | 0.017 |
| CC[C@H](C)[C@@H]1NC(=O)[C@H](CC(C)C)N(C)C(=O)C[C@@H](C(=O)N2CCCCC2)N(C)C(=O)[C@H](C2CCCC2)N(C)C(=O)C2(CCCC2)NC(=O)[C@@H]2CCCN2C(=O)[C@H](CCc2ccc(OC)nc2)NC(=O)CN(C)C(=O)[C@H](CC2CCCCC2)N(C)C(=O)[C@@H]2CCN2C(=O)[C@H](C)N(C)C1=O [Compound 2084] ([NMeL]I[NMeA][Aze][NMeCha][Sar][X2]P[Ac5c][NMeGly(cPent)][NMeD]-Piperidide; lactam N-11 (inferred); C-terminus assumed) | 0.13 |
| CC[C@H](C)[C@@H]1NC(=O)[C@H](C)N(C)C(=O)C[C@@H](C)NC(=O)[C@H](CC(C)C)N(C)C(=O)[C@H](Cc2ccccc2)N(C)C(=O)[C@H](CC(C)C)NC(=O)[C@H](CCc2ccc(Cl)cc2F)NC(=O)CN(C)C(=O)[C@H](Cc2ccc(Cl)cc2)N(C)C(=O)CN(C)C(=O)CN(C)C1=O [Compound 2086] (cyclo(I[Sar][Sar][NMePhe(4-Cl)][Sar][X30]L[NMeF][NMeL][d(β3hA)][NMeA])) | 0.1 |
| CC[C@H](C)[C@@H]1NC(=O)[C@H](C)N(C)C(=O)C[C@@H](C)NC(=O)[C@H](CC(C)C)N(C)C(=O)[C@H](Cc2ccccc2)N(C)C(=O)[C@H](CC(C)C)NC(=O)[C@H](CCc2ccc(C(F)(F)F)c(Cl)c2)NC(=O)CN(C)C(=O)[C@H](Cc2ccc(Cl)cc2)N(C)C(=O)CN(C)C(=O)CN(C)C1=O [Compound 2088] (cyclo(I[Sar][Sar][NMePhe(4-Cl)][Sar][hPhe(3-Cl-4-CF3)]L[NMeF][NMeL][d(β3hA)][NMeA])) | 0.03 |
| CC[C@H](C)[C@@H]1NC(=O)[C@H](C)N(C)C(=O)C[C@@H](C)NC(=O)[C@H](CC(C)C)N(C)C(=O)[C@H](Cc2ccccc2)N(C)C(=O)[C@H](CC(C)C)NC(=O)[C@H](CCc2ccc(F)cc2F)NC(=O)CN(C)C(=O)[C@H](Cc2ccc(Cl)cc2)N(C)C(=O)CN(C)C(=O)CN(C)C1=O [Compound 2089] (cyclo(I[Sar][Sar][NMePhe(4-Cl)][Sar][X99]L[NMeF][NMeL][d(β3hA)][NMeA])) | 0.3 |
| CC[C@H](C)[C@@H]1NC(=O)[C@H](C)N(C)C(=O)C[C@@H](C)NC(=O)[C@H](CC(C)C)N(C)C(=O)[C@H](Cc2ccccc2)N(C)C(=O)[C@H](CC(C)C)NC(=O)[C@H](CCc2c(F)cc(F)cc2F)NC(=O)CN(C)C(=O)[C@H](Cc2ccc(Cl)cc2)N(C)C(=O)CN(C)C(=O)CN(C)C1=O [Compound 2090] (cyclo(I[Sar][Sar][NMePhe(4-Cl)][Sar][X118]L[NMeF][NMeL][d(β3hA)][NMeA])) | 0.38 |
| CC[C@H](C)[C@@H]1NC(=O)[C@H](C)N(C)C(=O)C[C@@H](C)NC(=O)[C@H](CC(C)C)N(C)C(=O)[C@H](Cc2ccccc2)N(C)C(=O)[C@H](CC(C)C)NC(=O)[C@H](CCc2c(F)c(F)c(F)c(F)c2F)NC(=O)CN(C)C(=O)[C@H](Cc2ccc(Cl)cc2)N(C)C(=O)CN(C)C(=O)CN(C)C1=O [Compound 2091] (cyclo(I[Sar][Sar][NMePhe(4-Cl)][Sar][X33]L[NMeF][NMeL][d(β3hA)][NMeA])) | 0.27 |
| CC[C@H](C)[C@@H]1NC(=O)[C@H](C)N(C)C(=O)C[C@@H](C)NC(=O)[C@H](CC(C)C)N(C)C(=O)[C@H](Cc2ccccc2)N(C)C(=O)[C@H](CC(C)C)NC(=O)[C@H](CCc2c(F)cccc2Cl)NC(=O)CN(C)C(=O)[C@H](Cc2ccc(Cl)cc2)N(C)C(=O)CN(C)C(=O)CN(C)C1=O [Compound 2092] (cyclo(I[Sar][Sar][NMePhe(4-Cl)][Sar][X103]L[NMeF][NMeL][d(β3hA)][NMeA])) | 0.35 |
| CC[C@H](C)[C@@H]1NC(=O)[C@H](C)N(C)C(=O)C[C@@H](C)NC(=O)[C@H](CC(C)C)N(C)C(=O)[C@H](Cc2ccccc2)N(C)C(=O)[C@H](CC(C)C)NC(=O)[C@H](CCc2ccc(C(F)(F)F)c(F)c2)NC(=O)CN(C)C(=O)[C@H](Cc2ccc(Cl)cc2)N(C)C(=O)CN(C)C(=O)CN(C)C1=O [Compound 2093] (cyclo(I[Sar][Sar][NMePhe(4-Cl)][Sar][hPhe(3-F,4-CF3)]L[NMeF][NMeL][d(β3hA)][NMeA])) | 0.037 |
| CC[C@H](C)[C@@H]1NC(=O)[C@H](C)N(C)C(=O)C[C@@H](C)NC(=O)[C@H](CC(C)C)N(C)C(=O)[C@H](Cc2ccccc2)N(C)C(=O)[C@H](CC(C)C)NC(=O)[C@H](CCc2cc(Cl)ccc2F)NC(=O)CN(C)C(=O)[C@H](Cc2ccc(Cl)cc2)N(C)C(=O)CN(C)C(=O)CN(C)C1=O [Compound 2094] (cyclo(I[Sar][Sar][NMePhe(4-Cl)][Sar][X29]L[NMeF][NMeL][d(β3hA)][NMeA])) | 0.2 |
| CC[C@H](C)[C@@H]1NC(=O)[C@H](C)N(C)C(=O)C[C@@H](C)NC(=O)[C@H](CC(C)C)N(C)C(=O)[C@H](Cc2ccccc2)N(C)C(=O)[C@H](CC(C)C)NC(=O)[C@H](CCc2cccc(C(F)(F)F)c2)NC(=O)CN(C)C(=O)[C@H](Cc2ccc(Cl)cc2)N(C)C(=O)CN(C)C(=O)CN(C)C1=O [Compound 2095] (cyclo(I[Sar][Sar][NMePhe(4-Cl)][Sar][X56]L[NMeF][NMeL][d(β3hA)][NMeA])) | 0.24 |
| CC[C@H](C)[C@@H]1NC(=O)[C@H](C)N(C)C(=O)C[C@@H](C(=O)N2CCCC2)NC(=O)[C@H](CC(C)C)N(C)C(=O)[C@H](Cc2ccccc2)N(C)C(=O)[C@@H]2CCCN2C(=O)[C@H](CCc2ccc(C(F)(F)F)cc2F)NC(=O)CN(C)C(=O)[C@H](Cc2ccc(Cl)cc2)N(C)C(=O)CN(C)C(=O)CN(C)C1=O [Compound 2096, (3S,9S,18S,21S,25S,28S,31S,34S)-31-benzyl-9-[(4-chlorophenyl)methyl]-3-[2-[2-fluoro-4-(trifluoromethyl)phenyl]ethyl]-28-isobutyl-7,10,13,16,21,22,29,32-octamethyl-18-[(1S)-1-methylpropyl]-25-(pyrrolidine-1-carbonyl)-1,4,7,10,13,16,19,22,26,29,32-undecazabicyclo[32.3.0]heptatriacontane-2,5,8,11,14,17,20,23,27,30,33-undecone] ([NMeA]I[Sar][Sar][NMePhe(4-Cl)][Sar][X71]P[NMeF][NMeL]D-Pyrrolidide; lactam N-11) | 0.019 |
| CC[C@H](C)[C@@H]1NC(=O)[C@H](CC(C)C)N(C)C(=O)C[C@@H](C(=O)N2CCOCC2)N(C)C(=O)[C@H](C2CCCC2)N(C)C(=O)C2(CCCC2)NC(=O)[C@H](CCC(=O)N2CC(F)(F)C2)N(C)C(=O)[C@H](CCc2ccc(C(F)(F)F)c(Cl)c2)NC(=O)CN(C)C(=O)[C@H](CC2CCCCC2)N(C)C(=O)[C@@H]2CCN2C(=O)[C@H](C)N(C)C1=O [Compound 2098] ([NMeL]I[NMeA][Aze][NMeCha][Sar][hPhe(3-Cl-4-CF3)][NMeE](Azetidine(3,3-F2))[Ac5c][NMeGly(cPent)][NMeD]-Morpholide; lactam N-11) | 0.008 |
